Measurements published in US9956232B2, “Dialkyl-phosphinoyl-alkane (Dapa) compounds and compositions for treatment of lower gastrointestinal tract disorders” (priority 2016, dated 2018).

How the values were obtained:
[1] = Tablet characterisation (hardness, friability, disintegration, HPLC recovery); type: physicochemical; conditions: prototype tablets disintegrated in water
Method: Dilution Approach: DAPA-2-5 liquid were loaded onto excipients (batch size: 12-24 g) in ˜12 experiments. The API and the selected excipients were mixed geometrically using a stainless steel spatula, and the mixture passed through sieve #20. The sieved blend was lubricated using magnesium stearate (previously sieved through mesh #40), and evaluated for appearance and flow property (through funnel). Based on the flow nature, selected blends were compressed in to tablets using Ø7.2 mm (for 120 mg tablets) or Ø9.5 mm (for higher than 120 mg tablet) standard concave round tooling on an Acura rotary press. Tablets were evaluated for thickness, hardness, friability, and disintegration test in 10 mL of purified water at room temperature. The appearance of powder blends and tablets were photographed.
The formed tablet was evaluated by several parameters. The dissolution rate is the time for the tablet to dissolve in a fixed volume of water [e.g. 10 mL] and, in the case of the ODT, the disintegration time should be less than 30 sec. Tablet hardness measures the structural integrity of a tablet “under conditions of storage, transportation, and handling before usage”. […]
A high pressure liquid chromatography [HPLC] method was developed for analysis of DAPA-2-5 in aqueous solution. […] Prototype tablets containing DAPA-2-5 were disintegrated and the content of DAPA-2-5 measured. […]

[2] = system: isolated mouse vagus; test: Capsaicin-induced depolarization of the isolated vagus nerve; conditions: data also shown in U.S. Ser. No. 14/544,042
Excerpt: An isolated vagus nerve model was developed at Imperial College, London, U.K. [Birrell et al. TrpA1 agonists evoke coughing in guinea pig and human volunteers. Amer. J. respiratory and critical care medicine 180, 1042-7, 2009; Patel, H. J. et al. Inhibition of guinea-pig and human sensory nerve activity and the cough reflex in guinea-pigs by cannabinoid (CB2) receptor activation. Brit. J. Pharmacol. 140, 261-8, 2003]. In this in vitro assay, segments of the mouse vagus nerve are placed on a platform and the electrical activity is recorded after topical application of capsaicin. Capsaicin is a known irritant that elicits pain when it is applied to the skin and it will depolarize the isolated vagus. […] The similar effect of DAPA-2-5 in this test system was published in U.S. Ser. No. 14/55,042. Briefly, segments of vagus nerve, caudal to the nodose ganglion, were removed from mice with fine forceps and segments placed in oxygenated Krebs solution and bubbled with 95% O2/5% CO2. The desheathed nerve trunk was mounted in a ‘grease-gap’ recording chamber and constantly superfused with Krebs solution with a flow rate of approximately 2 mL/min, and the electrical activity of the nerve monitored with electrodes. The temperature of the perfusate was kept constant at 37° C. by a water bath. Nerve depolarizations were induced by superfusion of the nerve with capsaicin (1 μM). After two reproducible depolarization responses to capsaicin, DIPA-1-7 was applied at 1 mg/mL for 10 minutes in the perfusate followed by capsaicin.

[3] = system: Strains TA 98 and TA100; test: Ames test; type: cell-based; conditions: TA 98 and TA100, with and without liver activation
Method: Preliminary toxicological studies were conducted on DAPA-2-5 and DAPA-2-7.

[4] = Repeated-dose toxicity in male rats (organ weights, histology); type: in vivo, rat

Structure (SMILES): CCCCCP(=O)(C(C)CC)C(C)CC (stereo not drawn) [DAPA-2-5, 1-Di(sec-butyl) phosphinoyl-pentane]
- DAPA-2-5 recovered from the aqueous phase [1]: 86±2%
- inhibition of capsaicin-induced depolarization ([2]; TRPM8 knock-out mouse): did not inhibit
- percent inhibition of capsaicin-induced depolarization ([2]; isolated normal mouse vagus): 60%
- mutagenicity in the Ames test [3]: Neither of these compounds was mutagenic
- organ weights and histology vs vehicle ([4]; 20 mg/kg perioral by gavage for 7 days, rats): no statistical difference in organ weights or in histology
- organ weights and histology vs vehicle ([4]; via drinking water, 41 mg/kg body weight/day for 40 days, male rats): no statistical difference in organ weights or in histology
